{
  "source": "patent US20130197073A1",
  "about": "“HYPOCHOLESTEROLEMIC, ANTI-INFLAMMATORY AND ANTIEPILEPTIC NEUROPROTECTIVE COMPOUND” (NEURON BIOPHARMA, S.A., priority 2010, published 2013)",
  "key": {"[1]": {"system": "human neuroblastoma SK-N-MC cells", "assay": "Protection against neuronal death induced by tunicamycin (endoplasmic reticulum stress), WST-1", "format": "cell-based", "conditions": "NST0060 at 4 μM; 24 μM tunicamycin, 22 hours; significant from 1 to 40 μM", "procedure": "The assay was performed on human neuroblastoma SK-N-MC cells in culture, maintained as described in section 2.1.\nThe inhibition caused by compound NST0060 with respect to cell death caused by treatment with tunicamycin generating endoplasmic reticulum stress was analyzed. Tunicamycin is an inhibitor of protein N-glycosylation, causing abnormal protein folding in the endoplasmic reticulum, therefore said proteins are accumulated and cause stress, resulting in cell death. These cells, not exceeding 15 passages, were seeded on 96-well plates treated for adherent cells with a cell concentration of 5×10^4 cells/well; 3 wells of the plate were seeded for each assay condition.\nAfter 24 hours of cell incubation (at 37° C. and 5% CO2), the cell treatments were performed with 100 μl of total volume for the following conditions: • Control: culture medium (medium) • Tunicamycin (TM): medium plus 24 μM tunicamycin, causing death of 50% of the cells. • TM plus NST0060: medium plus TM (24 μM) plus NST0060 at 1, 4, 10, 40 or 100 μM\nThe cells were incubated (at 37° C. and 5% CO2) with these treatments for 22 hours, after which time WST-1 reagent (Roche) was added. The WST-1 test is based on the measurement of metabolic activity (method described in section 2.1)."}, "[2]": {"system": "zebrafish (Danio rerio, AB strain) embryos", "conditions": "in vivo", "protocol": "The study of this parameter (cardiotoxicity) not only determines the heart rate of the animals but also it allows determining heart beat alterations (tachycardia, bradycardia, etc.) or heart development anomalies (pericarditis, atrophy, hypertrophy, etc.).\nThe determination of the heart rate of the zebrafish embryos or larvae is performed visually. The heart beat (with the help of a manual counter) is counted for a period of 15 seconds by means of a magnifying glass (magnifications of 4-40×). The heartbeat of 12 of the 30 animals used per treatment in total is counted. The number of beats obtained is multiplied by 4 to obtain the number of heart beats per minute of the animal."}, "IL-1β": {"system": "IL-1β", "assay": "LPS model of systemic shock in mice, plasma IL-1β", "format": "in vivo", "conditions": "two i.p. doses of 50 mg/kg; 2 hours post-LPS", "procedure": "(§1) To that end an additional assay was carried out in which all the animals included were 12-week old male C57BL6 mice. The experiments were carried out strictly complying with the standard entitled Guidance on the Operation of Animals (Scientific Procedures, Act. 1986). The animals were subjected to their respective quarantine period and were treated with maximum precaution to minimize possible contaminations during treatments and handling.\n(§2) The mice were split up into three experimental groups: control group (n=8); control+LPS group (n=16); NST0060+LPS group (n=16). The mice were i.p. administered two doses of 50 mg/kg of NST0060 (in its lactone form) spaced out 12 hours from one another. 0.5% methyl cellulose in physiological saline, which was administered to the mice in the control groups with the same administration regimen, was used as a vehicle. Peripheral systemic inflammation was induced one hour after the last treatment by means of a single i.p. injection of LPS at 8 mg/kg. Half the mice in which systemic shock was induced (8 animals from the control+LPS group and 8 animals from the NST0060+LPS group) were sacrificed 2 hours after the inoculation of the LPS. Blood was taken and plasma was obtained, and both were frozen. […] The concentration of the inflammatory cytokines TNFα and IL-1β was evaluated in the plasma obtained by means of ELISA."}, "male C57BL6 mice": {"system": "male C57BL6 mice", "assay": "LPS model of systemic shock in mice, survival and symptomatology score", "format": "in vivo", "conditions": "LPS 8 mg/kg i.p.", "procedure": "as §1, §2"}, "seladin-1/DHCR24 gene": {"system": "seladin-1/DHCR24 gene", "assay": "Induction of seladin-1/DHCR24 gene expression, quantitative RT-PCR", "format": "cell-based, human", "conditions": "4 μM, 24 hours, GAPDH-normalized; increase at all tested concentrations (1, 4, 10, 40 μM)", "procedure": "The assay was performed on human neuroblastoma SK-N-MC cells in culture from the American Type Culture Collection (ATCC), in all cases strict rules of sterility were followed and the manipulation was performed in class II biological safety cabinets following European standard EN 12469. The cells were maintained in the following culture medium: Minimum Essential Medium Eagle (MEM) supplemented with 1 mM sodium pyruvate, 2 mM L-glutamine, 0.1 mM non-essential amino acids, 0.05 mg/ml gentamicin and 10% fetal bovine serum.\nReal-time quantitative RT-PCR was used to analyze the expression of the seladin-1/DHCR24 gene. The SK-N-MC cells were treated for 24 hours in the absence (control) or presence of NST0060 at 1, 4, 10 or 40 μM. The total RNA was extracted by means of the High Pure RNA Isolation kit (Roche) and the RNA amount and quality were analyzed by means of spectrophotometry in the Infinite 200 NanoQuant system (Tecan). The RT-PCR was performed by means of two steps, first, the mRNA was transformed to cDNA using the RNA to cDNA kit (Applied Biosystem) and the gene expression was subsequently analyzed by means of TaqMan probes using the validated probes Hs00207388_m1 for seladin-1/DHCR24 and Hs99999905_m1 for GAPDH (used to normalize the results), both of which are human-specific, in the 7500 Fast Real-Time PCR System equipment (Applied Biosystem). […]"}, "TNFα": {"system": "TNFα", "assay": "LPS model of systemic inflammation in mice, plasma TNFα, NST0060 compared with simvastatin", "format": "in vivo", "conditions": "two i.p. doses of 50 mg/kg (lactone forms); 2 hours after LPS 8 mg/kg i.p.", "text": "The investigators considered necessary to evaluate alternative activities with respect to hypocholesterolemic and neuroprotective activities given the characteristics and properties of the molecule. […] To evaluate this activity, a model of systemic shock in mice induced by lipopolysaccharide (LPS), a component of the gram negative bacteria structure that induces a cytokine-mediated, mainly TNFα-mediated, inflammatory response was used.\nas §1, with “All” for “To that end an additional assay was carried out in which all”, “included during the experimental process” for “included”\nIn both cases 0.5% methyl cellulose in physiological saline, which was administered to mice in the control group with the same administration regimen, was used as a vehicle. Peripheral systemic inflammation was induced one hour after the last treatment by means of a single i.p. injection of LPS at 8 mg/kg. Two hours later blood was taken and plasma was obtained, which was used to evaluate the anti-inflammatory effect by analyzing plasma concentrations of TNFα by means of ELISA."}},
  "note": "Where two headings read alike, the source gives them in different places.",
  "data": [
    {"smiles": "CCCC(CCC)C(=O)O[C@H]1C[C@@H](C)C=C2C=C[C@H](C)[C@H](CC[C@@H]3C[C@@H](O)CC(=O)O3)[C@H]21", "note": "[NST0060, 2-propylpentanoic acid (1S,3R,7S,8S,8aR)-1,2,3,7,8,8a-hexahydro-3,7-dimethyl-8-[2-[(2R,4R)-tetrahydro-4-hydroxy-6-oxo-2H-pyran-2-yl]ethyl]-1-naphthalenyl ester]", "values": [
      {"measurement": "protection against cell death caused by TM", "setting": "[1]", "result": 42, "unit": "%"},
      {"measurement": "heart rate with respect to the controls", "setting": "[2]; AB, zebrafish (Danio rerio), 3 mg/kg, 72 h", "result": "not at the dose of 3 mg/Kg"},
      {"measurement": "heart rate with respect to the controls", "setting": "[2]; 10 mg/kg", "result": "decrease of the heart rate is detected"},
      {"measurement": "cytokine IL-1β plasma levels", "setting": "IL-1β", "result": "statistically significant decrease in cytokine IL-18 plasma levels"},
      {"measurement": "survival rate / mortality induced by LPS", "setting": "male C57BL6 mice; two i.p. doses of 50 mg/kg (lactone form), observed 15 days", "result": "mortality induced by LPS is prevented in a statistically significant manner"},
      {"measurement": "score associated with the symptomatology (0 to 3)", "setting": "male C57BL6 mice; two i.p. doses of 50 mg/kg, statistically significant at 24 hours", "result": "lower severity of the systemic shock process"},
      {"measurement": "increase of seladin-1/DHCR24 gene expression with respect to the control", "setting": "seladin-1/DHCR24 gene", "result": 2.5, "unit": "fold"},
      {"measurement": "TNFα plasma levels with respect to the control group", "setting": "TNFα", "result": "large decrease in said levels that is significant with respect to the control group"},
      {"measurement": "TNFα plasma levels with respect to the simvastatin group", "setting": "TNFα", "result": "statistically significant TNFα plasma level reductions with respect to the group of simvastatin"}
    ]}
  ]
}
